One series relates to TGF-β. In words: Cytokine profile of BMDCs in vitro, TGF-β ELISA. The series is classed as cell-based, HA mice. The settings on record: 1 μg/ml FVIII with 0-50 mM OPLS, 48 hours, n=4. As for the experimental part:
Generation of bone marrow derived dendritic cells (BMDC): Bone marrow was isolated from 6 to 8 week old naïve HA. Briefly, bone marrow was cultured in RPMI media supplemented with […] (low endotoxin), 2-mercaptoethanol, Pen/Strep and […] GMCSF. Media was changed on days 3, 6 and 8 of culture and DCs were used on day 9. BMDC are then harvested and used as needed. To verify the differentiation of bone marrow cells into DCs, CD11c surface expression was confirmed by flow cytometry using anti-CD11c-FITC antibody with appropriate isotope controls.
Effects of OPLS on cytokine profile of BMDCs in vitro: The effects of OPLS on cytokine secretion by dendritic cells were investigated. On day 9 BMDCs, generated as above, were treated with FVIII as an antigen in the presence of increasing dose of OPLS. Changes in production of pro-inflammatory cytokines TNF-α and IL12p70 as well as the regulatory cytokine TGF-β were monitored as a function of dose. BMDCs were exposed to 1 μg/ml FVIII with increasing dose of OPLS (0, 0.5, 1, 10, 25, 50 mM). 1 M stock of OPLS was prepared by adding the appropriate amount of OPLS directly to RPMI media, and pH was adjusted using sterile 3N and 1N NaOH. […] TGF-β, TNF-α and IL-12p70 concentrations were determined using standard ELISA (R&D System Inc. Minneapolis, Minn., USA or Invitrogen […], Calif.).
For orientation: In an ELISA, binding on a coated surface is turned into a signal by an enzyme label.

The subject of the next series is anti-GAA total titers. As to the kind of experiment: OPLS-GAA sequential administration study. The class given is in vivo, Mice. The settings on record: for Total titers (ELISA), week 11 after re-challenge: rechallenge 4 weekly 1 μg rhGAA; for Total titers (ELISA), week 6: 4 weekly sc. The method, then:
This examples describes OPLS-GAA sequential administration study. To determine if OPLS can exert its immunomodulatory effects on the immune response to GAA when the two are administered in separate spaced injections, at the same injection site the following experiments were carried out. Mice (n=6 animals/group) were immunized with 4 weekly sc injections as follows. One group of animals received one single combined injection of 5 mg OPLS and 1 μg rhGAA(100 μl volume). Recombinant human GAA was produced by Creative Biomart. The second group received one injection of 5 mg OPLS (100 μl volume) then after a 5 minute wait they received a second injection of 1 μg rhGAA in sterile TRIS (100 μl volume) in the same injection site. The final control group received one injection of sterile TRIS (100 μl volume) then after a 5 minute wait they received a second injection of 1 μg rhGAA in sterile TRIS (100 μl volume) in the same injection site. After a two week rest period a saphenous blood sample was collected. All of the mice were then rechallenged with 4 weekly injections of 1 μg of rhGAA in 100 μl sterile TRIS (one single injection). Analysis was done by ELISA for total titers. The mean free GAA after 6 weeks was 3135±910, When co-administered, the GAA was 787±155, and when administered separately (sequentially), the GAA was 926±202 (FIG. 26). After re-challenge, terminal sampling was done at week 11. The mean free GAA after 11 weeks was 8775±2363, When co-administered, the GAA was 895±335, and when administered separately (sequentially), the GAA was 1884±761. […] Either administration method was able to induce a hypo-responsiveness towards GAA.

In the next series the test system is anti-Ova antibody titers. In words: Effect of OPLS on immunogenicity of ovalbumin after SC administration. The series is classed as in vivo, SW mice. Conditions: 5 mg OPLS with 1 μg Ova s.c. The method, then:
Methods: 14 SW mice between 6 and 8 weeks of age were divided into 2 groups: group one received 1 μg OVA SC in the abdominal region. Group two received 1 μg OVA/5 mg OPLS SC in the abdominal region. This treatment was given one day 1, 8, 10 and 12. Three days after the last injection the animals were sacrificed. Blood was centrifuged at 7500 rpm for 5 min at 4° C. Plasma was then removed and stored at -80° C. until analysis Titers values were obtained using an anti-Ova IgG […] analysis kit as per the manufacturers instruction (alphadiagnostic international). Statistics was done on the arithmetic mean of the log transformed data, graphs are reported as geometric means. Non-responders were given the value of the plate specific factor for uniformity.

Series [1] in a line: Safety of repeated high doses of OPLS. Conditions: up to 950 mg. The class given is in vivo, rodent and primate models. The method, then: Given that the methods disclosed herein appear to work best with doses of OPLS that equal or exceed 5 mg, it is important to understand the safety and toxicity of high doses of OPLS.
The subject of another series is anti-KLH IgG titer. As to the kind of experiment: 28-day repeat dose TDAR study, anti-KLH IgG. The class given is in vivo, CD-1 mice. The settings on record: 28 daily doses, any OPLS dose. The text has this:
FIG. 20. Anti-KLH IgG titer levels obtained from a short term, repeat dose (28 daily doses) TDAR study conducted in CD-1 mice.

The source of these data is patent US20220016241A1, “COMPOSITIONS AND METHODS FOR REDUCING ANTIGEN-SPECIFIC IMMUNOGENICITY” (The Research Foundation for The State University of New York, priority 2013, published 2022).

In the case of `N[C@@H](COP(=O)(O)O)C(=O)O` [OPLS, O-Phospho-L-Serine], in the series with TGF-β, the “TGF-β production by BMDC” value was “dose dependent increase”. Also, the “Total titers (ELISA), week 11 after re-challenge” value came to 895±335 in the series with anti-GAA total titers (co-administered with 5 mg OPLS) and 1884±761 in the series on anti-GAA total titers (sequential, 5 mg OPLS 5 min before GAA). Further, the “Total titers (ELISA), week 6” value is recorded as 787±155 in the series with anti-GAA total titers (co-administered: single combined injection 5 mg OPLS and 1 μg rhGAA); 926±202 with anti-GAA total titers (sequential: 5 mg OPLS then 1 μg rhGAA 5 min later, same site). For the same compound, the “Anti-Ova antibody titers vs Ova alone” value in the series with anti-Ova antibody titers is recorded as “lower”. The “Tolerability of repeated, high doses” value in series [1] is recorded as “well tolerated”. In addition, the “Anti-KLH IgG titer levels vs vehicle” value in the series with anti-KLH IgG titer is recorded as “No statistical significance”.
